The record followed here is patent US5914351A, “Anti-viral aromatic hydrazones” (Uniroyal Chemical Company, Inc., priority 1997, dated 1999).

Type in all cases: cell-based
The test system of one assay is HIV-1 IIIB. Kind of assay: Inhibition of HIV-1 induced syncytium formation in CEM cells, HIV-1 IIIB (wild type). Particulars: Human immunodeficiency virus 1, CCRF-CEM, 96 h, day 4 post infection. From the text:
(§1) CEM cells were obtained from the American Tissue Cell Culture Collection (Rockville, Md.). HIV-1 (IIIB) was originally obtained from the culture supernatant of persistently HIV-1-infected H9 cells and was provided by R. C. Gallo and M. Popovic (National Cancer Institute, National Institutes of Health, Bethesda, Md.). The selection and characterization of the HIV-1 RT mutant strains were done as follows: HIV-1/100-Ile ("100-Ile") was selected for resistance against TIBO R82150 as described in Balzarini et al, Virology 192: 246-253 (1993); HIV-1/103-Asn ("103-Asn") was selected for resistance against TIBO R82913 as described in Balzarini et al, Virology 192: 246-253 (1993); HIV-1/106-Ala ("106-Ala") was selected for resistance against nevirapine as described in Balzarini et al, J. Virol. 67: 5353-5359 (1993); HIV-1/138-Lys ("138-Lys") was selected for resistance against TSAO-m^3T as described in Balzarini et al, Virology 192: 246-253 (1993) and Balzarini et al, Proc. Nat. Acad. Sci. U.S.A. 90: 6952-6956 (1993); HIV-1/181-Cys ("181-Cys") was selected for resistance against pyridinone L-697,661 as described in Balzarini et al, Virology 192: 246-253 (1993); and HIV-1/188-His ("188-His") was selected for resistance against HEPT as described in Balzarini et al, Mol. Pharmocol. 44: 694-701 (1993). 188-His was then further converted to HIV-1/188-Leu ("188-Leu") upon further passage in cell culture in the absence of the HEPT.
(§2) CEM cells were suspended at ≈300,000 cells per mL of culture medium and infected with approximately 100 CCID50 (CCID50 being the 50% cell culture infective dose) of HIV-1 (IIIB) or one of the HIV-1 RT mutant strains described above. Then 100 μL of the infected cell suspensions was added to 200 μL microtiter plate wells containing 100 μL of appropriate serial (5-fold) dilutions of the test compounds. The inhibitory effect of the test compounds on HIV-1 induced syncytium formation in CEM cells was examined microscopically on day 4 post infection. The 50% effective concentration (EC50) was defined as the test compound concentration that inhibits syncytium formation in the HIV-1 infected cell cultures by 50%.

The subject of a further assay is HIV-1/138-Lys. As to the kind of experiment: Inhibition of HIV-1 induced syncytium formation in CEM cells, RT mutant 138-Lys. Particulars: Human immunodeficiency virus 1, CCRF-CEM, 96 h, read-out: EC50 138-Lys.
Source text: as §1, §2

Another assay relates to HIV-1/181-Cys. Kind of assay: Inhibition of HIV-1 induced syncytium formation in CEM cells, RT mutant 181-Cys. The conditions noted are these: Human immunodeficiency virus 1, CCRF-CEM, 96 h, read-out: EC50 181-Cys.
Source text: as §1
(§3) CEM cells were suspended at ≈300,000 cells per mL of culture medium and infected with approximately 100 CCID50 (CCID50 being the 50% cell culture infective dose) of HIV-1 (IIIB) or one of the HIV-1 RT mutant strains described above. Then 100 μL of the infected cell suspensions was added to 200 μL microtiter plate wells containing 100 μL of appropriate serial (5-fold) dilutions of the test compounds. The inhibitory effect of the test compounds on HIV-1 induced syncytium formation in CEM cells was examined microscopically on day 4 post infection. […]

In the next assay the test system is HIV-1/106-Ala. Kind of assay: Inhibition of HIV-1 induced syncytium formation in CEM cells, RT mutant 106-Ala. Particulars: Human immunodeficiency virus 1, CCRF-CEM, 96 h, read-out: EC50 106-Ala.
Source text: as §1, §3

Another assay concerns HIV-1/100-Ile. As to the kind of experiment: Inhibition of HIV-1 induced syncytium formation in CEM cells, RT mutant 100-Ile. Particulars: Human immunodeficiency virus 1, CCRF-CEM, 96 h, read-out: EC50 100-Ile.
Source text: as §1, with “188-His was then further converted to HIV-1/188-Leu ("188-Leu") upon further passage in cell culture in the absence of the HEPT.” left out

The next assay deals with HIV-1/103-Asn. Kind of assay: Inhibition of HIV-1 induced syncytium formation in CEM cells, RT mutant 103-Asn. The conditions noted are these: Human immunodeficiency virus 1, CCRF-CEM, 96 h, read-out: EC50 103-Asn.
Source text: as §1, with “188-His was then further converted to HIV-1/188-Leu ("188-Leu") upon further passage in cell culture in the absence of the HEPT.” left out

The next assay deals with HIV-1/188-Leu. As to the kind of experiment: Inhibition of HIV-1 induced syncytium formation in CEM cells, RT mutant 188-Leu. Particulars: Human immunodeficiency virus 1, CCRF-CEM, 96 h, read-out: EC50 188-Leu.
Source text: as §1, with “188-His was then further converted to HIV-1/188-Leu ("188-Leu") upon further passage in cell culture in the absence of the HEPT.” left out

Molecules are shown by their SMILES. Values after ≈ are worked out from the molar mass of the structure shown.

As for `Cc1occc1C(=O)Nc1ccc(Cl)c(C=NN(C)C)c1` [Compound 1], the 50% effective concentration (EC50) (as a rule, the concentration at which the effect is half-maximal) in the assay with HIV-1 IIIB was 0.225 µg/mL (≈ 0.736 µM); with HIV-1/138-Lys, 1.6 µg/mL (≈ 5.23 µM).

On to `Cc1occc1C(=S)Nc1ccc(Cl)c(C=NN(C)C)c1` [Compound 2], for which the EC50 in the assay on HIV-1 IIIB stood at 0.008 µg/mL (≈ 0.0249 µM); in the assay on HIV-1/138-Lys it was 0.04 µg/mL (≈ 0.124 µM); with HIV-1/181-Cys, 0.13 µg/mL (≈ 0.404 µM); with HIV-1/106-Ala, 0.065 µg/mL (≈ 0.202 µM); in the assay on HIV-1/100-Ile, 0.14 µg/mL (≈ 0.435 µM); with HIV-1/103-Asn it was 0.65 µg/mL (≈ 2.02 µM).

On to `Cc1occc1C(=O)Nc1ccc(Cl)c(C=NN2CCCC2)c1` [Compound 3], for which the EC50 amounted to 0.325 µg/mL (≈ 0.979 µM) in the assay on HIV-1 IIIB, 1.6 µg/mL (≈ 4.82 µM) with HIV-1/138-Lys, 1 µg/mL (≈ 3.01 µM) in the assay with HIV-1/181-Cys and 1.3 µg/mL (≈ 3.92 µM) in the assay with HIV-1/106-Ala.

`Cc1occc1C(=S)Nc1ccc(Cl)c(C=NN2CCCC2)c1` [Compound 4]: the EC50 came to 0.015 µg/mL (≈ 0.0431 µM) with HIV-1 IIIB; 0.08 µg/mL (≈ 0.23 µM) in the assay with HIV-1/138-Lys; 0.1 µg/mL (≈ 0.287 µM) in the assay on HIV-1/181-Cys; 0.1 µg/mL (≈ 0.287 µM) with HIV-1/106-Ala; 0.33 µg/mL (≈ 0.949 µM) in the assay with HIV-1/100-Ile; 0.34 µg/mL (≈ 0.977 µM) with HIV-1/103-Asn. In addition, the EC50 with HIV-1/188-Leu was 4.5 µg/mL (≈ 12.9 µM).

As to `Cc1occc1C(=S)Nc1ccc(Cl)c(C=NN2CCOCC2)c1` [Compound 5, N-[4-chloro-3-[(4-morpholinylimino)methyl]phenyl]-2-methyl-3-furancarbothioamide], in the assay with HIV-1 IIIB, the EC50 amounted to 0.13 µg/mL (≈ 0.357 µM).
